Measurements reported in US20190008797A1, “ESTROGEN RECEPTOR ALPHA COLIGANDS, AND METHODS OF USE THEREOF” (priority 2016, published 2019).

Assays:
[1] = target: ERα (Homo sapiens, UniProt P03372); assay: NKG2E-TK-Luc transfection assay, U2OS cells cotransfected with ERα; format: cell-based; set-up: expressed in transfected cells; host or cells: U2OS; conditions: 5 μM 2′,3′,4′-THC + 10 or 100 nM estrogen, 24 hours
Method: FIG. 7a-7e. […] (C) U2OS cells cotransfected with GRE-TK-Luc and human (h) GR and treated with 10 nM of dexamethasone (Dex) and 5 μM of 2′, 3′, 4′-THC alone or in combination for 24 hours. (D) U2OS cells cotransfected with human tyrosine aminotransferase (TATS)-luciferase reporter gene and hAR and treated with 10 nM of dihydrotestosterone (DHT) and 5 μM of 2′, 3′, 4′-THC alone or in combination for 24 hours. (E) U2OS cells cotransfected with TAT3-luciferase reporter gene and hPR-B and treated with 10 nM of progesterone (Prog) and 5 μM of 2′, 3′, 4′-THC alone or in combination for 24 hours. After transfection, luciferase activities were measured as described in the Methods. RLU is relative light units and the data shown are mean±SEM.
(§1) (FIGS. 6a, 6b) Gene expression of (FIG. 6a) KRT73 and (FIG. 6b) NKG2E in U2OS-ERα cells treated with 10 nM estradiol, 5 μM 2′, 3′, 4′-THC, 1μM ICI alone or in combination for 24 hours. […] Error bars are ±SEM. […] After transfection, luciferase activities were measured as described in the Methods. RLU is relative light units and the data shown are mean ±SEM. (FIG. 6c). […] After transfection, luciferase activities were measured as described in the Methods. RLU is relative light units and the data shown are mean ±SEM (FIG. 6d).

[2] = test system: MCF-7 cells; assay: MCF-7 cell proliferation (cell counting); conditions: 5 days
[3] = test system: U2OS-ERα cells; assay: Real-time PCR of unique genes FGR, KCNK6, KRT73 in U2OS-ERα cells; format: cell-based, human
Method: Expression was assessed by up regulation or down regulation of 3-fold or more and a P-value≤0.05. […] Error bars are ±SEM.
as §1

[4] = test system: U2OS-ERα cells; assay: KRT19 mRNA real-time PCR in U2OS-ERα cells; format: cell-based, human; conditions: for KRT19 gene expression, compound alone: 10 nM E2, 5 μM 2′,3′,4′-THC, 1 μM tamoxifen or raloxifene, 24 hours; for effect on E2-induced KRT19 expression: in combination with 10 nM E2, 24 hours
Method: (§2) (FIG. 1a) Chemical structure of 2′, 3′, 4′-THC. (FIG. 1b) U2OS cells cotransfected with ERE tk-luciferase and ERα (left panel) or ERβ (right panel). After transfection the cells were treated for 24 hours with 10 nM estradiol and 5 μM 2′, 3′, 4′-THC alone or in combination. Cells were lysed and luciferase activity was measured. RLU is relative light units. Error bars are the Mean±SEM. **P≤0.01. […] The total cellular RNA was extracted and real-time PCR for KRT19 mRNA was performed as described in Materials and Methods. […] Error bars are ±SEM. *P≤0.05, **** P≤0.0001.
FIGS. 3a-3d. […] Error bars are ±SEM.

[5] = test system: mouse uterus; assay: Ovariectomized (OVX) mouse model, osmotic pump; format: in vivo; conditions: OVX mice, 4 weeks
Method: 8 week old C57b1/6J female ovariectomized or intact mice were purchased from Jackson Laboratories, Sacramento, Calif. Mice were housed and maintained according to OLAC standard procedures in the NAF facility at UC Berkeley, Calif. All mice were fed a soy-free chow diet 2916.15 (Harlan Laboratories, Livermore, Calif.) starting one week before osmotic pump implantation or 2′, 3′, 4′-THC injection. Pumps Model 2006 were purchased from Alzet and filled with vehicle, 1 μg […], 2 mg of 2′, 3′, 4′-THC or the combination of 2′, 3′, 4′-THC and estradiol. All drugs were dissolved in sterile vehicle consisting of 50% dimethylsulfoxide (DMSO), 25% ETOH and 25% deionized water. Pumps were handled with sterile gloves and filled using a 27 gauge filling tube and 1 mL syringe. All pumps were placed in 1X PBS in 15 mL sterile conical tubes and incubated overnight at 37° . Pumps were surgically implanted into 8 week old C57b1/6J female ovariectomized mice (Jackson Laboratory, Sacramento, Calif.) posterior to the scapula and left for a duration of 4 weeks. Intact mice were injected intraperitoneal with 2′, 3′, 4′-THC every day for 3 weeks. Mice were weighed once a week for the duration of the experiment. The intraperitoneal gonadal fat was removed and weighed. Uterine tissue was collected, fluid drained and then weighed.
Tissues were dissected and immediately frozen in liquid nitrogen. Before RNA isolation, tissues were homogenized in PureZOL™ using the MP FastPrep™-24 for 40 seconds.
Uterine Tissue Slide Preparation Uterine tissue was removed and trimmed of excess adipose tissue. Tissues were fixed in formalin for 24 hours then transferred to 50% ETOH for 1 hour followed by 70% ethanol (ETOH) for another hour. After fixation tissues were sent to Histopathology Reference Laboratory, Hercules Calif. where they were paraffin embedded, sectioned and stained with hematoxylin and eosin for morphological exam
FIGS. 5a-5h. 2′, 3′, 4′-THC acts as antagonist in the mouse uterus. Uterine weights of intact (FIG. 5a) and OVX (FIG. 5b) mice. […] (FIG. 5h) Total body weight of OVX mice after 4 week treatment. Error bars are ±SEM.

[6] = test system: U2OS-ERα cells; assay: NKG2E mRNA real-time PCR in U2OS-ERα cells; format: cell-based, human; conditions: for NKG2E gene expression, compound alone: 10 nM E2, 5 μM 2′,3′,4′-THC, 1 μM tamoxifen or raloxifene
Method: as §2, §1

[7] = test system: U2OS-ERα cells; assay: Microarray gene regulation in U2OS-ERα cells; format: cell-based, human
Method: Total cellular RNA was isolated utilizing the Aurum™ RNA isolation kit (Bio-Rad, Hercules, Calif.) per the manufacturer's directions. RNA isolates were first quantified by nanodrop®, and then qualitatively evaluated by the Bio-Rad Experion™ system per the manufacturer's instructions. Biotin-labeled cRNA samples were prepared using 750 ng of total RNA. Biotin-labeled samples were evaluated by both 260/280 absorbance spectrophotometry and capillary electrophoresis. Labeled cRNA samples were hybridized overnight against Human genome HG U133A-2.0 GeneChip® arrays, (Affymetrix, Santa Clara, Calif.). All treatments were done in triplicate with the same batch of microarrays. The data was analyzed as previously described (Saunier, E. F., et al. Estrogenic plant extracts reverse weight gain and fat accumulation without causing mammary gland or uterine proliferation. PloS one 6, e28333 (2011)).
FIGS. 2a-2f2′, 3′, 4′-THC behaves as a unique coagonist on gene expression in U2OS-ERα cells. […] Expression was assessed by up regulation or down regulation of 3-fold or more and a P-value≤0.05. […] Error bars are ±SEM.

[8] = 1 μM ICI, 10 nM estradiol, 5 μM 2′,3′,4′-THC, 24 hours

Chain of ERα (P03372 whole entry): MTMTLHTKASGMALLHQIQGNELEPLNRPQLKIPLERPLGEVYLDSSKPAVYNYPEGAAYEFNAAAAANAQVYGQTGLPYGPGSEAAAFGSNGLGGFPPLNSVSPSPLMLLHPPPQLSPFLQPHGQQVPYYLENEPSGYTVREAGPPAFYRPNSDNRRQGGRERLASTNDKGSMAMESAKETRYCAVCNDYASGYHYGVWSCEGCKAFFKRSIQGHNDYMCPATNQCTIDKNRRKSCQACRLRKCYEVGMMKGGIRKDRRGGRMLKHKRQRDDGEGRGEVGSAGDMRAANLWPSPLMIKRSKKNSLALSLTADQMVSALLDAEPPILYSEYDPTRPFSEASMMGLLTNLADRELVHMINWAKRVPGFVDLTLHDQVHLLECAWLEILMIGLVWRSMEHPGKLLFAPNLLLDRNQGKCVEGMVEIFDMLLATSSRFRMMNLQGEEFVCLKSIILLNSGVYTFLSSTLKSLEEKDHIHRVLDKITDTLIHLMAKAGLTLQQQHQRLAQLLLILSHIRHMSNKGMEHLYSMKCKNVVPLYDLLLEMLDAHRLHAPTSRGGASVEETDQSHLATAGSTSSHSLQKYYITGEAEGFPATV

C[C@]12CC[C@@H]3c4cc(O)c(O)cc4CC[C@H]3[C@@H]1CC[C@@H]2O [2-hydroxyestradiol, reference compound]
synergistic action of 2′,3′,4′-THC on NKG2E-TK-Luc with the named estrogen [1]: synergistic action

COc1cc2c(cc1O)CC[C@@H]1[C@@H]2CC[C@]2(C)[C@@H](O)CC[C@@H]12 [2-methoxyestradiol, reference compound]
synergistic action of 2′,3′,4′-THC on NKG2E-TK-Luc with the named estrogen [1]: smaller synergistic activation

C[C@]12CC[C@@H]3c4ccc(O)c(O)c4CC[C@H]3[C@@H]1CC[C@@H]2O [4-hydroxyestradiol, reference compound]
synergistic action of 2′,3′,4′-THC on NKG2E-TK-Luc with the named estrogen [1]: synergistic action

C[C@]12CC[C@@H]3c4ccc(O)cc4CC[C@H]3[C@@H]1CC[C@@H]2O [E2, 17β-estradiol, reference compound]
MCF-7 cell proliferation, compound alone [2]: increased
E2 dose at which FGR activation was observed ([3]; E2 alone, 24 hrs): 10 nM
KCNK6 regulation ([3]; E2 alone, 24 hrs): not regulated
KRT73 regulation ([3]; E2 alone, 24 hrs): not regulated
KRT19 gene expression, compound alone [4]: induced
H & E staining of uterus, compound alone [5]: increased the number of cells lining the duct
amount of gonadal adipose tissue fat ([5]; E2 alone): decreased
uterine size / uterine weight, compound alone ([5]; osmotic pump): large increase
NKG2E gene expression, compound alone ([6]; 24 hours): activated
genes uniquely regulated by E2 alone ([7]; 10 nM E2): 222 genes
number of genes regulated, compound alone ([7]; 10 nM E2 or 5 μM 2′,3′,4′-THC, 3-fold or more, P≤0.05): 756 genes

C[C@]12CC[C@@H]3c4ccc(O)cc4C[C@@H](CCCCCCCCC[S+]([O-])CCCC(F)(F)C(F)(F)F)[C@H]3[C@@H]1CC[C@@H]2O (some centres unmarked) [ICI 182,780]
effect on induction of KRT73 by the 2′,3′,4′-THC/E2 combination [3, 8]: blocked
effect on induction of NKG2E by the 2′,3′,4′-THC/E2 combination [6, 8]: blocked

O=C(c1ccc(OCCN2CCCCC2)cc1)c1c(-c2ccc(O)cc2)sc2cc(O)ccc12 [raloxifene]
KRT19 gene expression, compound alone [4]: no effect
effect on E2-induced KRT19 expression [4]: blocked
NKG2E gene expression, compound alone ([6]; 24 hours): activated
effect on E2-induced NKG2E gene expression ([6]; in combination with 10 nM E2, 24 hours): antagonized

CC/C(=C(\c1ccccc1)c1ccc(OCCN(C)C)cc1)c1ccccc1 [tamoxifen]
KRT19 gene expression, compound alone [4]: no effect
effect on E2-induced KRT19 expression [4]: blocked
NKG2E gene expression, compound alone ([6]; 24 hours): activated
